Assay results reported in PMC6208284 (Phytotherapy Research, 2018).

What was measured:
[1] = test system: Leishmania tarentolae promastigotes (LtP); test: Superoxide radical detection in LtP by CMH/ESR; format: cell-based; settings: 5 μM, positive control, with DFO and DTPA
Description: Detection of superoxide radicals was performed using CMH as reaction partner and measuring the formed stable nitroxyl radicals by electron spin resonance (ESR) spectroscopy. Measurements were performed in PBS (136 mM NaCl, 1.15 mM KH2PO4, 14 mM Na2HPO4, and 2.7 mM KCl, pH 7.4) containing 15 mM glucose, 400 μM CMH, and 100 μM DFO (desferrioxamine mesylate) and 25 μM DTPA. Usually, these assays are performed in the presence of iron chelators (DFO and DTPA) to prevent CMH interaction with free Fe^3+ leading to CM^● unrelated to superoxide radicals. Before the measurements, LtP suspensions were washed twice with PBS to remove the medium. Typical experiments contained 5 × 10^8 LtP cells/ml. Stock solutions of EO compounds dissolved in DMSO were added. The influence of Asc (6–700 μM) on the CMH oxidation rate by LtP was assessed immediately and after prolonged incubation time (1 hr between Asc and CMH addition). The influence of iron‐dependent Asc activation in LtP on CMH oxidation was studied in the absence of iron chelators DFO and DTPA. Prior to the ESR measurement, 400 μM CMH was added. Afterwards, 17 μl of suspension was aspirated in gas‐permeable Teflon tubes (ID 0.7 mm). This capillary tube was placed in the resonator of the ESR instrument (Bruker EMX, split ring MD5, Germany), and 10 sequential measurements were performed. The following instrument settings were used: microwave frequency 9.682 GHz, modulation frequency 100 kHz, modulation amplitude 1 G, time constant 0.082 s, center field 3,446 G, scan rate 71 G/min, sweep width 100 G, scan time 84 s, and attenuation CMH: 7.96 × 10^3. From the ESR spectra, the middle peak intensity was retrieved, and concentrations of oxidized CMH were obtained by comparison with a standard curve prepared from 3‐carboxy‐proxyl solutions with defined concentrations. Four replicate measurements were performed for each condition.

[2] = test system: Leishmania tarentolae promastigotes (LtP); test: Immediate mitochondrial uncoupling in LtP, OxoPlates with oligomycin; format: cell-based; settings: positive control uncoupler, 0.7–5 μM, LtP + 5 μM Oligo
Description: U‐shaped 96‐well OxoPlates (OP96U PreSens, Germany) with integrated fluorescence oxygen sensors were used for parallel LtP experiments. Oxygen concentrations were measured using a PerkinElmer Enspire fluorescence plate reader using excitation wavelength 540 nm and two emission wavelengths (reference dye 590 nm, IRef, and O2‐sensing dye 650 nm, IInd). The oxygen concentration (μM O2) was calculated according to manufacturer's instructions as described previously (Monzote et al., 2016). Measurements with LtP were performed in air‐saturated BHI medium. […] Immediately before the measurement, 150 μl of well‐aerated cell suspensions (13 × 10^7 LtP per ml) was added to the respective wells. Finally, on the top of each well, 50 μl of paraffin oil was layered. Two minutes after mixing, the fluorescence measurements at 27 °C were started, and eight measurements at 5‐min intervals were performed. From the linear part of the O2 decay, the slopes were calculated and corrected for the medium drift for further statistic evaluation. All measurements were performed at least in triplicate. For bioenergetic characterization, the ATP synthase inhibitor Oligo (5 μM) and as positive control CCCP (0.7–5 μM) were used. Respiratory control ratio (RCR) was calculated from respiration rate in the presence of Oligo and compounds/uncoupler divided by the rate in the presence of Oligo.

[3] = parameters: method as in Rappoport & Frankel, 1967; settings: ref Rappoport & Frankel, 1967; cited from earlier work

CCCCCC[C@H]1C(=O)O[C@H](C)[C@H](NC(=O)c2cccc(NC=O)c2O)C(=O)O[C@@H](C)[C@@H]1OC(=O)CC(C)C [AA, antimycin A, reference compound]
CM● formation (superoxide radicals) in LtP [1]: showed an increase

N#CC(C#N)=NNc1cccc(Cl)c1 [CCCP, carbonyl cyanide‐m‐chlorophenylhydrazone, reference compound]
Oligo‐inhibited respiration in LtP [2]: clear increase

O=[N+]([O-])c1ccc(O)c([N+](=O)[O-])c1 [2,4‐dinitrophenol, reference compound]
pKa value [3]: around 4
